This experiment has as its target human ORL-1 receptor (Homo sapiens, UniProt P41146). Put plainly: Agonist activity: stimulation of [35S]-GTPγS binding. The note with it: compound at 100 nM. Type of experiment: biochemical. A general note: GTPγS resists hydrolysis and so accumulates on activated G proteins.

Here are results for one molecule from patent US6716846B2, “High affinity ligands for nociceptin receptor ORL-1” (Schering Corporation, priority 1998, dated 2004).

Chain of human ORL-1 receptor (P41146 whole entry): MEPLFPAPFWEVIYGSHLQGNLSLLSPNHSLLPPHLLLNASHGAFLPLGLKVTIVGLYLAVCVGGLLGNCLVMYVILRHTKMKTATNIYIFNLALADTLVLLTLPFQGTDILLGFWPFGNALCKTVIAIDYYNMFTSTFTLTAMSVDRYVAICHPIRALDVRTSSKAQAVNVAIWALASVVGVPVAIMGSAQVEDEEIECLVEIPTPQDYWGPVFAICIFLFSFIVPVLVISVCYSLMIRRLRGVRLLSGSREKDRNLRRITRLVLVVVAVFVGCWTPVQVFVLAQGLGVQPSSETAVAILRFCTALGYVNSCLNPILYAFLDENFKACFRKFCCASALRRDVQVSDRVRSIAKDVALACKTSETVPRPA

`CNC(=O)NC1(c2ccccc2)CCN(C(c2ccccc2Cl)c2ccccc2Cl)CC1`: the activation at 0.1 µM is 102%.
